The text below walks through data of US20220332700A1, “NOVEL APOPTOSIS SIGNAL-REGULATING KINASE 1 INHIBITORS” (MANKIND PHARMA LTD, priority 2019, published 2022).

Experiment [1] addresses T1, recombinant ASK1 (Homo sapiens, UniProt Q99683).
T1 construct: purchased Carna Biosciences
Briefly: ASK1 Biochemical Assay (HTRF KinEASE-STK S3). The following applies: ATP 100 μM; read-out: Biochemical Assay IC50. The method in brief:
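Recombinant ASK1 (5 ng) preincubated with compound 1 h at 23 °C in MOPS pH 7 buffer with Mg-acetate, DTT, NP40, glycerol, BSA and 1% DMSO. Inhibition calculated against vehicle after substrate-blank subtraction.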
(TR-FRET usually uses a lanthanide donor and a delayed reading to cut background.)

In experiment [2] the target is T2, Human ASK1 (Homo sapiens, UniProt Q99683).
T2 construct: expressed in transfected cells; host or cells: HEK293T-AP1
T2 sequence (Q99683 1-1374): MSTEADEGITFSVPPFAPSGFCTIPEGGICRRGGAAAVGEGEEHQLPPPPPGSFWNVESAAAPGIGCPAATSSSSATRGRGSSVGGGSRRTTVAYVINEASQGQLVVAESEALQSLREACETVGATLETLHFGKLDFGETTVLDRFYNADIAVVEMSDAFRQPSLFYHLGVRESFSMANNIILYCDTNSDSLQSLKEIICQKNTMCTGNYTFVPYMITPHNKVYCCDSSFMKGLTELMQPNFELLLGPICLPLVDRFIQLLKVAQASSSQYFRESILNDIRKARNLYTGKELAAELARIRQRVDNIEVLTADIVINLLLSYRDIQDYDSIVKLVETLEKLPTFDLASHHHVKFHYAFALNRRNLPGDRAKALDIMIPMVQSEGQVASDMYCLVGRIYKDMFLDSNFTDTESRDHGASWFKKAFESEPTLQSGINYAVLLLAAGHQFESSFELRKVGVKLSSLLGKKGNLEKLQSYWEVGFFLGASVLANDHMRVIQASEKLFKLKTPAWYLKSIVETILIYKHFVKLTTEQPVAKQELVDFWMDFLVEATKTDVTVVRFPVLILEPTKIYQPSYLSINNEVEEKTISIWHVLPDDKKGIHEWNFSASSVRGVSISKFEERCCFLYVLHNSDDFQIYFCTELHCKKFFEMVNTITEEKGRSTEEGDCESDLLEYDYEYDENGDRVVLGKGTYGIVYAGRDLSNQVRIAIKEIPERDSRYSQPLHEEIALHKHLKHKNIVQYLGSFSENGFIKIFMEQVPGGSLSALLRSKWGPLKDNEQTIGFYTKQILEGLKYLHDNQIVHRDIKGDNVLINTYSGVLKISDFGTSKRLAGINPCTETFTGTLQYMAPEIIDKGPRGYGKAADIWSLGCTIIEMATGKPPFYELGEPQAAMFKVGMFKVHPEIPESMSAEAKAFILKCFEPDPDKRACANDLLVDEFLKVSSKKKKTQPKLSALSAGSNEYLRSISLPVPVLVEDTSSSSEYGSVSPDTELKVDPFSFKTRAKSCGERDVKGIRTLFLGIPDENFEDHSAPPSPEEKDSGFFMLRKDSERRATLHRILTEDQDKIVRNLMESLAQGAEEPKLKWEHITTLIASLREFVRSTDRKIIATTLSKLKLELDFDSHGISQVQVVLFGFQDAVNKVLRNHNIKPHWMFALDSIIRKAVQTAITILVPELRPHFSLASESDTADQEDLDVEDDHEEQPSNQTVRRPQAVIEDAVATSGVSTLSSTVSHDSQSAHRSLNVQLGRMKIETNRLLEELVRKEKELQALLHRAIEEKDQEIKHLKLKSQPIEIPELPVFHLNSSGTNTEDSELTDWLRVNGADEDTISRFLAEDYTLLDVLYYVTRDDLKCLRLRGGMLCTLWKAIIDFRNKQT
Briefly: ASK1 Cell Based Assay (phospho p38 read out in hASK1 transfected HEK293T-AP1 cells). The following applies: HEK293T-AP1 cells, 1 mM hydrogen peroxide, phospho p38; read-out: Cell Based Assay IC50. As to the method: HEK293T-AP1 cells were seeded at a density of 20,000 cells per well in a poly-d-lysine coated 96 well microplate. Next day, cells were transfected with hASK1-pcDNA3.1 vector using lipofectamine 3000. After 24 hours of transfection, cells were treated with compounds for 24 hours in assay medium. DMSO was used as a vehicle control with a final DMSO concentration of 0.2%. On 4th day, medium was discarded and cells were activated with 1 mM hydrogen peroxide for 1 hour in the presence of compounds. Cells were lysed for 1 hour with 1× lysis buffer on a shaker at 100 rpm. Sixteen microliters of lysate was collected into a 384 well small volume plate. Phospho p38 levels in the lysate was detected by using CisbioPhospho-p38 MAPK (Thr180/Tyr182) #64P38PEG.Four microliters of phospho p38 antibodies labelled with europium cryptate and d2 acceptor, were added to the lysate and incubated overnight. TR-FRET was measured at an excitation of 335 nm and emission was measured at 615 nm and 665 nm in BMG FLUOstar multimode reader.
Compounds were assessed for ASK1 inhibition based on phospho p38 read out. […] Background control values were susbtracted from vehicle control as well as from compound treated wells.

One may read the IC50 as the concentration that inhibits the measured activity by half. As for `CC(C)n1cnnc1-c1cccc(N2CCN(c3ccc(NS(C)(=O)=O)cc3)C2=O)n1` [Example 1044, N-(4-(3-(6-(4-isopropyl-4H-1,2,4-triazol-3-yl)pyridin-2-yl)-2-oxoimidazolidin-1-yl)phenyl)methanesulfonamide], the IC50 in experiment [1] is less than 100 nM; in experiment [2], greater than 1000 nM.
With `CNS(=O)(=O)c1ccc(N2CCN(c3cccc(-c4nncn4C(C)C)n3)C2=O)cc1` [Example 1045, 4-(3-(6-(4-isopropyl-4H-1,2,4-triazol-3-yl)pyridin-2-yl)-2-oxoimidazolidin-1-yl)-N-methylbenzenesulfonamide], the IC50 was less than 100 nM in experiment [1] and less than 1000 nM in experiment [2].
For `CC(C)n1cnnc1-c1cccc(N2CCN(c3ccc(CS(C)(=O)=O)cc3)C2=O)n1` [Example 1047, 1-(6-(4-isopropyl-4H-1,2,4-triazol-3-yl)pyridin-2-yl)-3-(4-((methylsulfonyl)methyl)phenyl)imidazolidin-2-one], the IC50 is less than 100 nM in experiment [1] and greater than 1000 nM in experiment [2].
For the compound `CC(C)n1cnnc1-c1cccc(N2CCN(c3ccc(C(=O)NC4CC4)cc3)C2=O)n1` [Example 1048, N-cyclopropyl-4-(3-(6-(4-isopropyl-4H-1,2,4-triazol-3-yl)pyridin-2-yl)-2-oxoimidazolidin-1-yl)benzamide], the half-maximal inhibitory concentration (IC50) was less than 100 nM in experiment [1] and greater than 1000 nM in experiment [2].
Regarding `COCCS(=O)(=O)c1ccc(N2CCN(c3cccc(-c4nncn4C(C)C)n3)C2=O)cc1` [Example 1050, 1-(4-(2-methoxyethylsulfonyl)phenyl)-3-(6-(4-isopropyl-4H-1,2,4-triazol-3-yl)pyridin-2-yl)imidazolidin-2-one], the half-maximal inhibitory concentration (IC50) in experiment [1] was less than 100 nM; in experiment [2], greater than 1000 nM.
For `CC(C)n1cnnc1-c1cccc(N2CCN(c3ccc(C(O)C4CC4)cc3)C2=O)n1` (stereo not shown) [Example 1051, 1-(4-(cyclopropyl(hydroxy)methyl)phenyl)-3-(6-(4-isopropyl-4H-1,2,4-triazol-3-yl)pyridin-2-yl)imidazolidin-2-one], in that order: less than 100 nM and less than 1000 nM.
For `CC(C)n1cnnc1-c1cccc(N2CCN(c3ccc(NC(C(N)=O)C4CC4)cc3)C2=O)n1` (stereo not shown) [Example 1052, 2-(4-(3-(6-(4-isopropyl-4H-1,2,4-triazol-3-yl)pyridin-2-yl)-2-oxoimidazolidin-1-yl)phenylamino)-2-cyclopropylacetamide], in that order: less than 100 nM and greater than 1000 nM.
The corresponding values for `CC(CC#N)n1cnnc1-c1cccc(N2CCN(c3ccc(S(C)(=O)=O)cc3)C2=O)n1` (stereo not shown) [Example 1053, 3-(3-(6-(3-(4-(methylsulfonyl)phenyl)-2-oxoimidazolidin-1-yl)pyridin-2-yl)-4H-1,2,4-triazol-4-yl)butanenitrile] are less than 100 nM and greater than 1000 nM.
Turning to `COc1cc(S(C)(=O)=O)c(C)cc1N1CCN(c2cccc(-c3nncn3C(C)C)n2)C1=O` [Example 1055, 1-(6-(4-isopropyl-4H-1,2,4-triazol-3-yl)pyridin-2-yl)-3-(2-methoxy-5-methyl-4-(methylsulfonyl)phenyl)imidazolidin-2-one], the IC50 in experiment [1] is less than 100 nM; in experiment [2], greater than 1000 nM.
The corresponding values for `CC(C)n1cnnc1-c1cccc(N2CCN(c3ccc(NC(C#N)C4CC4)cc3)C2=O)n1` (stereo not shown) [Example 1056, 2-(4-(3-(6-(4-isopropyl-4H-1,2,4-triazol-3-yl)pyridin-2-yl)-2-oxoimidazolidin-1-yl)phenylamino)-2-cyclopropylacetonitrile] are greater than 100 nM and greater than 1000 nM.
For `CC(CO)n1cnnc1-c1cccc(N2CCN(c3ccc(S(C)(=O)=O)cc3)C2=O)n1` (stereo not shown) [Example 1057, 1-(6-(4-(1-hydroxypropan-2-yl)-4H-1,2,4-triazol-3-yl)pyridin-2-yl)-3-(4-(methylsulfonyl)phenyl)imidazolidin-2-one], in that order: less than 100 nM and greater than 1000 nM.
